Assay results from patent US9617256B2 (priority 2007, dated 2017).
≈ marks a conversion by molar mass, not a printed value. Like-named read-outs stand apart in the source and are kept apart here.

Assays:
[1] = tested on: APAE006 in the presence of 8 micrograms per milliliter of polymyxin B nonapeptide; format: cell-based, P. aeruginosa; conditions: APAE006 with 8 micrograms per milliliter polymyxin B nonapeptide
Outline: (§1)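 Incubation: 35° C., ambient air, 18-24 h. Medium: cation-adjusted Mueller-Hinton broth with 2-fold serial dilutions of drug. Inoculum: 3×10^5–7×10^5 CFU/mL final, per CLSI microdilution method.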

APAE001 (ATCC27853) = experiment: MIC broth microdilution, APAE001; format: cell-based, P. aeruginosa; conditions: Pseudomonas aeruginosa, ATCC27853, read-out: MIC APAE001, APAE001 (ATCC27853)
Outline: (§2)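 Growth inhibition was scored by CLSI broth microdilution using cation-adjusted Mueller-Hinton broth and a final inoculum between 3×10^5 and 7×10^5 CFU/mL, incubated 18-24 hours at 35° C.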

AECO001 (ATCC25922) = experiment: MIC broth microdilution, AECO001; format: cell-based, E. coli; conditions: for MIC: Escherichia coli; for Ratio of MICs on AECO001 [Cpd (A = —CHCH3NH2)/Cpd (A = —C(CH3)2NH2)]: MIC of paired compound with A = —CHCH3NH2 divided by MIC of compound with A = —C(CH3)2NH2, n=2 data, pairs identical except for the A moiety
Outline: as §2

[2] = tested on: AABA1060 (clinical isolate of Acinetobacter baumannii); experiment: MIC broth microdilution, AABA1060; format: cell-based; conditions: Acinetobacter baumannii, read-out: MIC AABA1060
Outline: as §2

ATCC43816 [3] = experiment: MIC broth microdilution, infecting strain ATCC43816; format: cell-based; conditions: ratio >1 means the —C(CH3)2NH2 compound had a lower MIC than the paired —C(CH3)2OH compound
Experimental: Minimum Inhibitory Concentrations (MICs) were determined by the broth microdilution method in accordance with the Clinical and Laboratory Standards Institute (CLSI) guidelines. In brief, organism suspensions were adjusted to a 0.5 McFarland standard to yield a final inoculum between 3×10^5 and 7×10^5 colony-forming units (CFU)/mL. Drug dilutions and inocula were made in sterile, cation adjusted Mueller-Hinton Broth (Beckton Dickinson). An inoculum volume of 100 μL was added to wells containing 100 μL of broth with 2-fold serial dilutions of drug. All inoculated microdilution trays were incubated in ambient air at 35° C. for 18-24 hours. Following incubation, the lowest concentration of the drug that prevented visible growth (OD600 nm<0.05) was recorded as the MIC. Performance of the assay was monitored by the use of laboratory quality-control strains and levofloxacin, a compound with a defined MIC spectrum, in accordance with CLSI guidelines. Typically, compounds of the present invention have MIC values of […].
(§3) As shown in the following Table 3, three pairs of compounds were tested in the neutropenic thigh efficacy model. For each pair of compounds, the compounds were identical in structure except for the A moiety. More specifically, A is —C(CH3)2NH2 in one compound and A is —C(CH3)2OH in the other compound. […] In addition, the ratios of the MICs of each pair of compounds on the infecting strain (ATCC43816) was calculated.

[4] = tested on: ASAU001 (laboratory strain of S. aureus, ATCC29213); experiment: MIC broth microdilution, ASAU001; format: cell-based; conditions: Staphylococcus aureus, ATCC29213, read-out: MIC ASAU001
Outline: as §2

ATCC43816 [5] = experiment: Neutropenic thigh efficacy model; format: in vivo, mice; conditions: for Ratio of thigh static doses: neutropenic thigh model, compound with A = —C(CH3)2NH2 versus paired compound with A = —C(CH3)2OH, ratio >1 means the —C(CH3)2NH2 compound had a lower static dose; for Ratio of thigh static dose normalized to MICs: ratio of neutropenic thigh static doses normalized to the MIC ratio on ATCC43816, —C(CH3)2NH2 compound versus paired —C(CH3)2OH compound
Experimental: Mice were rendered neutropenic prior to infection with 2 doses of cyclophosphamide, and then infected intramuscularly in the thigh with 10^5-10^6 CFU of bacteria. See Gudmundsson S., Erlensdottir H., “Murine Thigh Infection Model” Handbook of Animal Models of Infection, M. A. Sande and O. Zak, Eds.; London: Academic Press, 1999, pp 137-144. Antibiotics or vehicle alone as a negative control were administered twice at 2 hrs and 14 hrs post-infection. At 24 hrs post-infection, thighs were harvested, homogenized, and plated to measure the number of CFUs surviving per thigh. Thighs from a subset of animals were also harvested 2 hrs post-infection to record the CFUs present just prior to the first antibiotic treatment (pre-treatment). The static dose, defined as the dose required to result in a CFU load at 24 hours that is identical to that measured at 0 hours post infection, was calculated by standard methods in Prizm from a dose response curve.
as §3

[6] = tested on: APAE006 (strain of P. aeruginosa in which all efflux pumps are inactivated); experiment: microbe, parasite or virus in culture; format: cell-based; conditions: Pseudomonas aeruginosa, read-out: MIC APAE006, APAE006, all efflux pumps inactivated
Outline: as §1

[7] = tested on: AECO063 (ATCC25922 bearing an acrAB mutation); experiment: microbe, parasite or virus in culture; format: cell-based, E. coli; conditions: Escherichia coli, ATCC25922, read-out: MIC AECO063
Outline: as §2

[8] = ATCC25922, read-out: MIC AECO001
[9] = ATCC25922, read-out: MIC AECO001 HSA AGP

O=C(NO)[C@H]1[C@H](O)CCN1C(=O)c1ccc(OC(F)(F)F)cc1
melting point: 64 to 65 °C

CC(C)(N)[C@H](NC(=O)c1ccc(C#CC#CC2CC2)cc1)C(=O)NO [Example 91-12]
MIC APAE006 + PMBN [1]: A (MIC's of 2.0 μg/mL or less = A) | MIC (APAE001 (ATCC27853)): < 2 µg/mL | MIC (AECO001 (ATCC25922); [8]): < 2 µg/mL | MIC (AECO001 (ATCC25922); [9]): < 2 µg/mL | Ratio of MICs on AECO001 [Cpd (A = —CHCH3NH2)/Cpd (A = —C(CH3)2NH2)] (AECO001 (ATCC25922)): 5.6 | MIC [2]: < 2 µg/mL | Ratio of MICs on ATCC43816 [Cpd (A = —CH(CH3)2OH/Cpd (A = —C(CH3)2NH2)]) (ATCC43816 [3]): 1.0 | MIC [4]: 2 to 16 µg/mL (≈ 5.89 to 47.1 µM) | Ratio of thigh static doses (ATCC43816 [5]): >3x | Ratio of thigh static dose normalized to MICs (ATCC43816 [5]): >3x | MIC [6]: < 2 µg/mL | MIC [7]: < 2 µg/mL

CC(C)(N)[C@H](NC(=O)c1ccc(C#Cc2ccc(CN3CCCOCC3)cc2)cc1)C(=O)NO [Example 122-5]
MIC APAE006 + PMBN [1]: A (MIC's of 2.0 μg/mL or less = A) | MIC (APAE001 (ATCC27853)): < 2 µg/mL | MIC (AECO001 (ATCC25922); [8]): < 2 µg/mL | MIC (AECO001 (ATCC25922); [9]): < 2 µg/mL | Ratio of MICs on AECO001 [Cpd (A = —CHCH3NH2)/Cpd (A = —C(CH3)2NH2)] (AECO001 (ATCC25922)): 2.4 | MIC [2]: < 2 µg/mL | Ratio of MICs on ATCC43816 [Cpd (A = —CH(CH3)2OH/Cpd (A = —C(CH3)2NH2)]) (ATCC43816 [3]): 0.5 | MIC [4]: 16 to 64 µg/mL (≈ 34.4 to 138 µM) | Ratio of thigh static doses (ATCC43816 [5]): >2x | Ratio of thigh static dose normalized to MICs (ATCC43816 [5]): >4x | MIC [6]: < 2 µg/mL | MIC [7]: < 2 µg/mL

CC(C)(N)[C@H](NC(=O)c1ccc(C#CC#Cc2cccs2)cc1)C(=O)NO [Example 88-13]
MIC APAE006 + PMBN [1]: A (MIC's of 2.0 μg/mL or less = A) | MIC (APAE001 (ATCC27853)): < 2 µg/mL | MIC (AECO001 (ATCC25922); [8]): < 2 µg/mL | MIC (AECO001 (ATCC25922); [9]): < 2 µg/mL | Ratio of MICs on AECO001 [Cpd (A = —CHCH3NH2)/Cpd (A = —C(CH3)2NH2)] (AECO001 (ATCC25922)): 4.1 | MIC [2]: < 2 µg/mL | Ratio of MICs on ATCC43816 [Cpd (A = —CH(CH3)2OH/Cpd (A = —C(CH3)2NH2)]) (ATCC43816 [3]): 1.6 | MIC [4]: 2 to 16 µg/mL (≈ 5.24 to 41.9 µM) | Ratio of thigh static doses (ATCC43816 [5]): >7x | Ratio of thigh static dose normalized to MICs (ATCC43816 [5]): >4.4x | MIC [6]: < 2 µg/mL | MIC [7]: < 2 µg/mL

C[C@@H](O)[C@H](NC(=O)c1ccc(F)c(Br)c1)C(=O)NO
melting point: 152 to 153 °C
